According to paper PMC9032561, “Simultaneous Inhibitory Effects of All-Trans Astaxanthin on Acetylcholinesterase and Oxidative Stress” (Marine Drugs, 2022):

Molecular target: T1, acetylcholinesterase (Electrophorus electricus, UniProt O42275)
T1 construct: gene ache
Assay: Ellman assay with Lineweaver-Burk kinetics; supported by fluorescence quenching and circular dichroism
Format: biochemical

T1 sequence (O42275 24-633): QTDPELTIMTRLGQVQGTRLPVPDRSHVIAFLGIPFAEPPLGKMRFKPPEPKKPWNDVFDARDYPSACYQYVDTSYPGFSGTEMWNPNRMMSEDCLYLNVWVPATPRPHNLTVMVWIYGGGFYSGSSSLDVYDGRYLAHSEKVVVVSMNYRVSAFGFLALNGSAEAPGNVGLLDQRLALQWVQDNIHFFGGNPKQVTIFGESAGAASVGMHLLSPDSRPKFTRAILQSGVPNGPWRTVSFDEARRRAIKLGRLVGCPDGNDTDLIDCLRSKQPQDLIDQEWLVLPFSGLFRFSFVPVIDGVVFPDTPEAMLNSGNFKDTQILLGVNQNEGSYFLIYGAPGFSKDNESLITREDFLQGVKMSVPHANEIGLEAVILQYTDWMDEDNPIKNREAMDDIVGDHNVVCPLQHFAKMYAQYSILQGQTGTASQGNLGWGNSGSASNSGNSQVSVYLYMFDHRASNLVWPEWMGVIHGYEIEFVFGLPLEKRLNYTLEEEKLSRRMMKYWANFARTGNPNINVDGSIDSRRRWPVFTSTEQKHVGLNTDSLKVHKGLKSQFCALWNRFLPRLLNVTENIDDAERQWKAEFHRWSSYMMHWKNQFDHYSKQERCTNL

CC1=C(/C=C/C(C)=C/C=C/C(C)=C/C=C/C=C(C)/C=C/C=C(C)/C=C/C2=C(C)C(=O)[C@@H](O)CC2(C)C)C(C)(C)C[C@H](O)C1=O [all-trans astaxanthin]
IC50: 8.64 µM
